Where “and” joins values, the source holds several entries; their conditions need not be identical. Identical values can stand only once. ± gives the expanded uncertainty stated by the source.
Test: activity coefficient (dimensionless); of the first substance listed, at infinite dilution; xn = mol fraction of the nth substance listed
Conditions: 100 kPa, Liquid, inert gas stripping, x1 = 0

| Structure (SMILES) | activity coefficient (278.15 K) | activity coefficient (288.15 K) | activity coefficient (298.15 K) | activity coefficient (308.15 K) | activity coefficient (318.15 K) | activity coefficient (328.15 K) | activity coefficient (319.15 K) | activity coefficient (273.17 K) | activity coefficient (333.15 K) | activity coefficient (273.35 K) | activity coefficient (283.15 K) | activity coefficient (293.15 K) | activity coefficient (303.15 K) | activity coefficient (313.15 K) | activity coefficient (323.15 K) |
| --- | --- | --- | --- | --- | --- | --- | --- | --- | --- | --- | --- | --- | --- | --- | --- |
| CCCCC(C)=O [2-hexanone] + O | 257 ± 33 | 331 ± 34 | 384 ± 35 | 422 ± 39 | 471 ± 61 | 456 ± 42 |  |  |  |  |  |  |  |  |  |
| CCC(=O)C(C)C [2-methyl-3-pentanone] + O | 269 ± 58 | 329 ± 71 | 391 ± 51 | 442 ± 58 | 467 ± 61 | 491 ± 64 |  |  |  |  |  |  |  |  |  |
| CC(=O)C(C)(C)C [3,3-dimethyl-2-butanone] + O | 217 ± 20 | 272 ± 25 | 321 ± 29 | 345 ± 32 | 370 ± 34 | 379 ± 35 |  |  |  |  |  |  |  |  |  |
| CCCC(=O)CC [3-hexanone] + O | 260 ± 34 | 340 ± 44 | 418 ± 43 | 458 ± 42 |  | 524 ± 48 | 515 ± 47 |  |  |  |  |  |  |  |  |
| CC(=O)C(C)C [3-methyl-2-butanone] + O | 64.4 ± 8.2 | 72.9 ± 7.2 | 91 ± 8.1 | 102 ± 9.1 | 112 ± 9.8 | 119 ± 10 |  |  |  |  |  |  |  |  |  |
| CCC(C)C(C)=O (stereo unspecified) [3-methyl-2-pentanone] + O | 216 ± 47 | 268 ± 58 | 296 ± 48 | 332 ± 43 | 358 ± 46 | 380 ± 49 |  |  |  |  |  |  |  |  |  |
| CC(=O)CC(C)C [4-methylpentan-2-one] + O | 239 ± 24 | 277 and 287 | 327 ± 30 | 370 ± 34 | 405 ± 37 | 410 ± 38 |  |  |  |  |  |  |  |  |  |
| CCCC(C)=O [pentan-2-one] + O | 67.2 ± 6.7 | 78.7 ± 7 | 95.9 ± 8.6 | 107 ± 9.4 | 121 ± 11 | 129 ± 11 |  | 61.4 ± 6.1 | 130 ± 11 |  |  |  |  |  |  |
| CCC(=O)CC [pentan-3-one] + O |  | 92.8 ± 8.3 | 114 and 112 | 129 ± 12 | 137 and 133 |  |  |  | 148 ± 13 | 67.9 ± 8.7 | 86.9 ± 8.7 | 101 ± 9 | 118 ± 11 | 130 ± 12 | 142 ± 13 |

Reference: the NIST ThermoML archive (doi:10.1021/acs.jced.9b00726)
